Test results reported in the supplement of paper PMC10307832.

Columns and labels:
Experiment in all cases: relative viability (nuclei count vs DMSO), 5 days (fraction); higher = more cells survive
Bosutinib + Lapatinib = compound: COc1cc(Nc2c(C#N)cnc3cc(OCCCN4CCN(C)CC4)c(OC)cc23)c(Cl)cc1Cl [Bosutinib] + CS(=O)(=O)CCNCc1ccc(-c2ccc3ncnc(Nc4ccc(OCc5cccc(F)c5)c(Cl)c4)c3c2)o1 [Lapatinib] (partner 2 µM)
In short: (§1)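 Relative viability equals treated-well nuclei counts divided by vehicle-well nuclei counts. Counts came from 4× images of lung cancer cell lines grown in 1536-well plates for 5 days after pin-tool dosing on the day after seeding. Dosing used one drug alone or a fixed anchor-drug dose plus five library-drug doses (not always all listed) in √10 steps, and values are medians of duplicate plates.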

Bosutinib + Navitoclax = compound: COc1cc(Nc2c(C#N)cnc3cc(OCCCN4CCN(C)CC4)c(OC)cc23)c(Cl)cc1Cl [Bosutinib] + CC1(C)CCC(c2ccc(Cl)cc2)=C(CN2CCN(c3ccc(C(=O)NS(=O)(=O)c4ccc(N[C@H](CCN5CCOCC5)CSc5ccccc5)c(S(=O)(=O)C(F)(F)F)c4)cc3)CC2)C1 [Navitoclax] (partner 0.5 µM)
In short: as §1

Bosutinib + Dasatinib = compound: COc1cc(Nc2c(C#N)cnc3cc(OCCCN4CCN(C)CC4)c(OC)cc23)c(Cl)cc1Cl [Bosutinib] + Cc1nc(Nc2ncc(C(=O)Nc3c(C)cccc3Cl)s2)cc(N2CCN(CCO)CC2)n1 [Dasatinib] (partner 0.075 µM)
In short: as §1

Bosutinib + Vorinostat = compound: COc1cc(Nc2c(C#N)cnc3cc(OCCCN4CCN(C)CC4)c(OC)cc23)c(Cl)cc1Cl [Bosutinib] + O=C(CCCCCCC(=O)Nc1ccccc1)NO [Vorinostat] (partner 1 µM)
In short: as §1

Bosutinib = compound: COc1cc(Nc2c(C#N)cnc3cc(OCCCN4CCN(C)CC4)c(OC)cc23)c(Cl)cc1Cl [Bosutinib]
In short: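 In 1536-well plates, lung cancer cell lines rested overnight at 37 °C before five library-drug doses (not always all listed), √10 apart, were pinned onto vehicle-anchored plates. Nuclei were counted with MetaXpress from 4× Hoechst images taken after 5 days without medium change. Viability compares treated-well with vehicle-well nuclei as a median over plates, and plates needed control CV below 25% plus at least one doubling to pass.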

Cell Line	relative viability (Bosutinib + Lapatinib; first compound 0.01 µM)	relative viability (Bosutinib + Lapatinib; first compound 0.03162 µM)	relative viability (Bosutinib + Lapatinib; first compound 0.1 µM)	relative viability (Bosutinib + Lapatinib; first compound 1 µM)	relative viability (Bosutinib + Navitoclax; first compound 0.01 µM)	relative viability (Bosutinib + Navitoclax; first compound 0.03162 µM)	relative viability (Bosutinib + Navitoclax; first compound 0.1 µM)	relative viability (Bosutinib + Navitoclax; first compound 1 µM)	relative viability (Bosutinib + Dasatinib; first compound 0.01 µM)	relative viability (Bosutinib + Dasatinib; first compound 0.03162 µM)	relative viability (Bosutinib + Dasatinib; first compound 0.1 µM)	relative viability (Bosutinib + Dasatinib; first compound 1 µM)	relative viability (Bosutinib + Vorinostat; first compound 0.01 µM)	relative viability (Bosutinib + Vorinostat; first compound 0.03162 µM)	relative viability (Bosutinib + Vorinostat; first compound 0.1 µM)	relative viability (Bosutinib + Vorinostat; first compound 1 µM)	relative viability (Bosutinib; 0.01 µM)	relative viability (Bosutinib; 0.03162 µM)	relative viability (Bosutinib; 0.1 µM)	relative viability (Bosutinib; 1 µM)
NCI-H2347	0.923	1.05	0.911	0.989	0.797	0.793	0.752	0.781	0.296	0.324	0.314	0.258	0.461	0.579	0.654	0.543	1.03	1.09	0.992	1.06
HCC-827	0.167	0.25	0.19	0.169	1	0.986	1.04	0.933	0.287	0.279	0.307	0.178	0.811	0.903	1.04	0.75	1.07	1.05	1.09	0.649
NCI-H1666	0.705	0.592	0.656	0.757	1	1.01	0.889	0.892	0.75	0.834	0.814	0.808	0.99	0.99	1.12	1.22	0.988	1.04	0.924	1.02
201T	1.03	1.05	1.01	0.96	1.2	1.2	1.2	1.14	0.612	0.571	0.57	0.544	0.941	1.04	1	0.894	1	0.991	1.02	0.906
PC-3 [JPC-3]	0.432	0.428	0.431	0.505	0.856	0.797	0.807	0.768	1.04	0.931	0.996	0.834	0.853	0.983	0.918	0.541	1.04	1.07	1.06	0.745
NCI-H2405	1.23	1.2	0.983	0.895	0.943	0.812	0.892	0.477	0.259	0.204	0.215	0.238	1.04	1.33	1.39	0.766	1.05	1.1	1.03	0.801
LXF-289	0.881	0.912	0.913	0.929	0.938	0.945	0.911	0.966	0.231	0.213	0.2	0.224	0.808	0.852	0.792	0.758	1	1.01	1.03	1.01
EKVX	0.231	0.216	0.242	0.172	0.882	0.929	0.914	0.807	0.549	0.505	0.611	0.491	0.645	0.73	0.747	0.629	0.927	0.971	0.952	0.85
A-427	1.02	0.972	1	1.03	0.947	0.97	1.05	0.888	0.767	0.843	0.665	0.732	0.87	0.888	0.833	0.846	0.979	1.04	1.03	0.926
SK-MES-1	0.435	0.512	0.555	0.505	1.21	0.97	1.1	1.3	0.372	0.412	0.393	0.392	1.21	1.13	1.12	0.812	1.02	1.01	1.01	0.815
LCLC-97TM1	1.43	1.29	1.24	1.14	0.541	0.464	0.595	0.483	0.849	0.869	0.851	0.685	0.925	0.763	0.811	0.823	1.03	0.969	1.06	1.04
NCI-H2170	0.268	0.268	0.282	0.282	0.527	0.67	0.702	0.468	0.559	0.583	0.556	0.608	0.882	0.832	0.891	0.774	1.01	0.974	1.01	0.926
NCI-H1993	0.814	0.85	0.947	0.835	0.871	0.968	0.957	0.742	0.492	0.63	0.589	0.622	0.727	0.733	0.654	0.885	0.977	0.9	0.987	0.936
NCI-H460	1.03	0.875	0.874	0.833	1.09	1.11	1.02	0.683	0.548	0.491	0.51	0.537	0.719	0.717	0.761	0.775	1.02	0.976	0.967	0.875
NCI-H1975	0.907	0.842	0.839	0.712	1	1.06	1.1	0.991	0.343	0.395	0.364	0.374	0.654	0.684	0.684	0.673	0.992	0.958	0.966	0.81
RERF-LC-KJ	0.836	0.832	0.878	0.905	0.845	1.08	0.893	0.743	0.746	0.882	0.826	0.735	0.691	0.705	0.733	0.811	0.997	0.971	0.978	0.948
NCI-H322M	0.51	0.589	0.623	0.573	1.12	1.25	1.28	1.2	0.252	0.267	0.246	0.301	0.751	0.856	0.857	0.54	0.889	0.985	0.98	0.576
NCI-H1651	0.923	0.877	0.767	0.823	1	1.17	0.88	0.961	0.488	0.452	0.433	0.482	0.548	0.636	0.646	0.569	0.997	0.966	1.03	0.988
HARA	0.7	0.657	0.757	0.76	1.16	1.1	1.12	1.19	0.303	0.296	0.304	0.385	0.544	0.654	0.754	0.592	1.07	1.02	0.993	0.791
H3255	0.251	0.238	0.235	0.258	0.669	0.574	0.485	0.218	0.369	0.381	0.364	0.288		0.832	0.858	0.768	0.931	0.978	0.995	0.594
CAL-12T	0.755	0.706	0.82	0.551	1.23	1.16	1.09	1.12	0.383	0.426	0.417	0.467	0.756	0.773	0.664	0.528	1.06	0.96	0.95	0.914
NCI-H1437	0.89	0.798	0.784	0.702	1.13	1.11	1.01	0.918	0.392	0.384	0.4	0.338	0.875	0.793	0.842	0.805	1.03	0.974	1.02	0.912
HOP-62	0.977	1.12	1.08	1.01	0.901	0.982	1.04	1.09	0.692	0.639	0.671	0.688	0.641	0.687	0.682	0.652	0.977	1.01	0.959	1.05
EPLC-272H	1.19	0.931	1.02	1.04	1.05	1.09	1.15	1.35	0.476	0.425	0.447	0.409	0.601	0.464	0.477	0.321	0.982	1.01	1.12	0.911
COR-L 105	0.384	0.403	0.391	0.3	0.808	0.825	0.84	0.492	0.383	0.363	0.397	0.353	0.861	0.844	0.828	0.624	0.974	0.861	0.914	0.735
HCC-366	1.16	0.942	0.939	0.884	1.08	1.05	0.997	0.49	0.755	0.627	0.692	0.66	0.433	0.378	0.375	0.286	0.991	1	0.974	0.785
NCI-H2009	0.905	1.02	1.05	0.716	1.22	1.2	1.21	1.08	0.41	0.362	0.416	0.344	0.78	0.809	0.758	0.562	1.07	1.05	1.06	0.865
NCI-H23	1.09	1.06	1.2	1.11	0.904	0.742	0.869	0.764	0.927	0.937	0.679	0.76	0.779	0.622	0.651	0.619	1.13	0.997	1.04	0.872
NCI-H727	0.781	0.767	0.781	0.384	0.429	0.519	0.437	0.291	0.374	0.321	0.32	0.31	1.04	1.27	1.33	0.973	0.911	0.929	0.985	0.632
NCI-H1355	1.01	1.04	1.09	0.957	0.996	0.925	0.96	0.814	0.746	0.673	0.731	0.709	0.655	0.694	0.708	0.625	0.999	1.03	1.05	0.931
